≈ marks a conversion by molar mass, not a printed value.
Legend:
[1] = tested on: A549; experiment: Cytotoxicity against human A549 cells by CCK8 assay; format: functional, cell-based
[2] = tested on: Caco-2; experiment: Cytotoxicity against human Caco2 cells by CCK8 assay; format: functional, cell-based
[3] = tested on: Staphylococcus aureus; experiment: Antibacterial activity against Staphylococcus aureus ATCC 29213 by resazurin dye based microdilution method; format: functional
[4] = tested on: Staphylococcus aureus; experiment: Antibacterial activity against Methicillin resistant Staphylococcus aureus by resazurin dye based microdilution method; format: functional
[5] = tested on: Escherichia coli; experiment: Antibacterial activity against Escherichia coli by resazurin dye based microdilution method; format: functional
[6] = tested on: Klebsiella pneumoniae; experiment: Antibacterial activity against Klebsiella pneumoniae by resazurin dye based microdilution method; format: functional
[7] = tested on: PC-3M; experiment: Cytotoxicity against human PC3M cells after 72 hrs by MTT assay; format: functional, cell-based

SMILES | IC50 [1] [nM] | IC50 [2] [nM] | MIC [3] [µg/mL] | MIC [4] [µg/mL] | MIC [5] [µg/mL] | MIC [6] [µg/mL] | IC50 [7] [nM]
CN(C=O)C1=C2C(=CSS2(=O)=O)NC1=O | > 64000 | > 64000 | 8 (≈ 32.5 µM) | 8 (≈ 32.5 µM) | 32 (≈ 130 µM) | 64 (≈ 260 µM) | –
CN(C=O)c1c2sscc-2[nH]c1=O | 1340 | 570 | 0.5 (≈ 2.33 µM) | 0.5 (≈ 2.33 µM) | 0.5 (≈ 2.33 µM) | 0.5 (≈ 2.33 µM) | 1700
O=CNc1c2sscc-2[nH]c1=O | – | – | 4 (≈ 20 µM) | 2 (≈ 9.99 µM) | 1 (≈ 4.99 µM) | 1 (≈ 4.99 µM) | –
CN(C=O)C1=C2SCSC=C2NC1=O | > 64000 | > 64000 | > 64 | > 64 | > 64 | > 64 | –
CC(=O)NC[C@H]1CN(c2ccc(N3CCOCC3)c(F)c2)C(=O)O1 [LINEZOLID] | – | – | 1 (≈ 2.96 µM) | 1 (≈ 2.96 µM) | > 64 | > 64 | –
